{
  "source": "patent US10058545B2",
  "about": "“Method of treating pulmonary arterial hypertension” (Cipla Limited, priority 2016, dated 2018)",
  "key": {"[1]": {"tested_on": "rats with monocrotaline induced pulmonary arterial hypertension", "assay": "Monocrotaline rat PAH efficacy model: terminal hemodynamics, heart/lung weights", "settings": "for Body Weight / HR / HW/BW / Heart Weight / LV Weight / Lung Weight / MAP / Mean PAP / RV Weight / RV/BW / RV/LV + S (Fulton's Index) / Systolic PAP: Day 28 after MCT, Mean ± SEM", "description": "The studies were conducted for hemodynamic evaluation of cinitpride in anesthetized sprague dawley rats treated with monocrotaline (“MCT”) to induce pulmonary arterial hypertension. Sildenafil was used as an internal control to compare the effects of cinitapride.\nThe effects of cinitapride were evaluated in rats with monocrotaline induced pulmonary arterial hypertension using sildenafil as standard care treatment. Male Sprague-Dawley rats were orally administered vehicle cinitapride (0.3 or 0.9 mg/kg total daily dose, divided into a BID regimen given every day for 28 days starting on Day 1), or sildenafil (30 mg/kg, administered twice daily) (n=10 in each group). Rats received a single injection of monocrotaline (60 mg/kg, s.c.) on Study Day 1. On the twenty-eighth day following monocrotaline dosing, the rats were anesthetized with ketamine/xylazine for terminal monitoring of pulmonary and systemic arterial pressures along with heart rate.\nVehicle (0.5% Methylcellulose+0.2% Tween 80 in deionized water, Cinitapride (0.3 or 0.9 mg/kg total daily dose; Sildenafil (30 mg/kg, administered twice daily)\n(§1) Male Sprague-Dawley rats in groups 2 to 5 were administered […] of body weight of Monocrotaline in DMSO subcutaneously to induce PAH on day 1. The DMSO group (Group 1) received a single dose of DMSO subcutaneously on day 1. The vehicle group received 5 ml of vehicle every morning. The cinitapride as well as sildenafil groups were orally administered cinitapride (0.3 or 0.9 mg/kg total daily dose, divided into a BID regimen given every day for 28 days starting on Day 1), or sildenafil (30 mg/kg, administered twice daily). On the twenty-eighth day after monocrotaline dosing, the rats were anesthetized with ketamine/xylazine for terminal monitoring of pulmonary and systemic arterial pressures along with heart rate."}, "[2]": {"tested_on": "pulmonary arterioles of rats with monocrotaline induced pulmonary arterial hypertension", "assay": "Monocrotaline rat PAH model: lung histopathology (smooth muscle hypertrophy, muscularization of pulmonary arterioles)", "type": "in vivo, Sprague-Dawley rats", "settings": "for mean hypertrophy score (smooth muscle hypertrophy of small arterioles): score 0 (normal) to 4 (marked), monocrotaline+vehicle 2.7", "description": "as §1\nLater the animals were sacrificed and histopathological evaluation was performed to assess pulmonary arterioles for smooth muscle hypertrophy & muscularization of pulmonary arterioles.\nThe elastin/eosin stained lung section were examined microscopically and histopathological findings were recorded as smooth muscle hypertrophy of small arterioles and muscularization of pulmonary arterioles. The finding were recorded as 0 (normal), 1 (minimal), 2 (mild), 3 (moderate) or 4 (marked). Scoring smooth muscle hypertrophy in small pulmonary arterioles was based on the thickness of muscular wall & extent of finding (apparent no. of arterioles affected)."}, "[3]": {"settings": "Sildenafil 60 mg/kg per day bid, oral"}, "[4]": {"settings": "Cinitapride 0.3 mg/kg per day bid, oral"}, "[5]": {"settings": "Cinitapride 0.9 mg/kg per day bid, oral"}},
  "data": [
    {"smiles": "CCCc1nn(C)c2c(=O)[nH]c(-c3cc(S(=O)(=O)N4CCN(C)CC4)ccc3OCC)nc12", "note": "[Sildenafil]", "values": [
      {"measurement": "Body Weight", "setting": "[1]; [3]", "value": "0.32 ± 0.01", "unit": "kg"},
      {"measurement": "HR", "setting": "[1]; [3]", "value": "278 ± 21", "unit": "bpm"},
      {"measurement": "HW/BW", "setting": "[1]; [3]", "value": "3.89 ± 0.17"},
      {"measurement": "Heart Weight", "setting": "[1]; [3]", "value": "1.24 ± 0.02", "unit": "g"},
      {"measurement": "LV Weight", "setting": "[1]; [3]", "value": "0.74 ± 0.02", "unit": "g"},
      {"measurement": "Lung Weight", "setting": "[1]; [3]", "value": "2.36 ± 0.13", "unit": "g"},
      {"measurement": "MAP", "setting": "[1]; [3]", "value": "69 ± 5", "unit": "mmHg"},
      {"measurement": "Mean PAP", "setting": "[1]; [3]", "value": "38 ± 6", "unit": "mmHg"},
      {"measurement": "RV Weight", "setting": "[1]; [3]", "value": "0.38 ± 0.02", "unit": "g"},
      {"measurement": "RV/BW", "setting": "[1]; [3]", "value": "1.19 ± 0.09"},
      {"measurement": "RV/LV + S (Fulton's Index)", "setting": "[1]; [3]", "value": "0.51 ± 0.03"},
      {"measurement": "Systolic PAP", "setting": "[1]; [3]", "value": "46 ± 7", "unit": "mmHg"},
      {"measurement": "hypertrophic index (RV wt corrected by body weight)", "setting": "[1]; sildenafil", "value": "decrease"}
    ]},
    {"smiles": "CCOc1cc(N)c([N+](=O)[O-])cc1C(=O)NC1CCN(CC2CC=CCC2)CC1", "note": "(centres unmarked) [Cinitapride]", "values": [
      {"measurement": "completely muscularized arterioles, group mean percentage", "setting": "[2]; 0.45 mg/kg cinitapride twice daily following MCT, vehicle following MCT 52.1%", "value": 38.2, "unit": "%"},
      {"measurement": "vascular smooth muscle hypertrophy compared to control group (FIG. 4)", "setting": "[2]; cinitapride 0.15 mg/kg after monocrotaline induction", "value": "mild vascular smooth muscle hypertrophy"},
      {"measurement": "presence of smooth muscle hypertrophy in small arterioles", "setting": "[2]; cinitapride 0.15 mg/kg and 0.45 mg/kg twice daily following Monocrotaline", "value": "substantially decreased"},
      {"measurement": "vascular smooth muscle hypertrophy compared to control group (FIG. 5)", "setting": "[2]; cinitapride 0.45 mg/kg after monocrotaline induction", "value": "mild vascular smooth muscle hypertrophy"},
      {"measurement": "mean hypertrophy score (smooth muscle hypertrophy of small arterioles)", "setting": "[2]; monocrotaline+cinitapride 0.15 bid", "value": 1.9},
      {"measurement": "mean hypertrophy score (smooth muscle hypertrophy of small arterioles)", "setting": "[2]; monocrotaline+cinitapride 0.45 bid", "value": 2.1},
      {"measurement": "systolic pulmonary arterial pressure compared to the vehicle group", "setting": "[1]; 0.9 mg/kg/day cinitapride, after 28 days", "value": "reduction in systolic pulmonary arterial pressure"},
      {"measurement": "Body Weight", "setting": "[1]; [4]", "value": "0.32 ± 0.02", "unit": "kg"},
      {"measurement": "HR", "setting": "[1]; [4]", "value": "299 ± 17", "unit": "bpm"},
      {"measurement": "HW/BW", "setting": "[1]; [4]", "value": "3.71 ± 0.20"},
      {"measurement": "Heart Weight", "setting": "[1]; [4]", "value": "1.17 ± 0.05", "unit": "g"},
      {"measurement": "LV Weight", "setting": "[1]; [4]", "value": "0.68 ± 0.04", "unit": "g"},
      {"measurement": "Lung Weight", "setting": "[1]; [4]", "value": "2.36 ± 0.16", "unit": "g"},
      {"measurement": "MAP", "setting": "[1]; [4]", "value": "77 ± 8", "unit": "mmHg"},
      {"measurement": "Mean PAP", "setting": "[1]; [4]", "value": "43 ± 5", "unit": "mmHg"},
      {"measurement": "RV Weight", "setting": "[1]; [4]", "value": "0.35 ± 0.02", "unit": "g"},
      {"measurement": "RV/BW", "setting": "[1]; [4]", "value": "1.14 ± 0.10"},
      {"measurement": "RV/LV + S (Fulton's Index)", "setting": "[1]; [4]", "value": "0.53 ± 0.04"},
      {"measurement": "Systolic PAP", "setting": "[1]; [4]", "value": "55 ± 8", "unit": "mmHg"},
      {"measurement": "Body Weight", "setting": "[1]; [5]", "value": "0.32 ± 0.02", "unit": "kg"},
      {"measurement": "HR", "setting": "[1]; [5]", "value": "295 ± 9", "unit": "bpm"},
      {"measurement": "HW/BW", "setting": "[1]; [5]", "value": "3.52 ± 0.16"},
      {"measurement": "Heart Weight", "setting": "[1]; [5]", "value": "1.10 ± 0.05", "unit": "g"},
      {"measurement": "LV Weight", "setting": "[1]; [5]", "value": "0.70 ± 0.03", "unit": "g"},
      {"measurement": "Lung Weight", "setting": "[1]; [5]", "value": "2.30 ± 0.20", "unit": "g"},
      {"measurement": "MAP", "setting": "[1]; [5]", "value": "76 ± 2", "unit": "mmHg"},
      {"measurement": "Mean PAP", "setting": "[1]; [5]", "value": "37 ± 3", "unit": "mmHg"},
      {"measurement": "RV Weight", "setting": "[1]; [5]", "value": "0.31 ± 0.03", "unit": "g"},
      {"measurement": "RV/BW", "setting": "[1]; [5]", "value": "1.01 ± 0.11"},
      {"measurement": "RV/LV + S (Fulton's Index)", "setting": "[1]; [5]", "value": "0.45 ± 0.04"},
      {"measurement": "Systolic PAP", "setting": "[1]; [5]", "value": "45 ± 4", "unit": "mmHg"},
      {"measurement": "effect on right ventricular hypertrophy (RV/LV+S, Fulton's Index) compared to vehicle", "setting": "[1]; cinitapride 0.3 mg/kg/day", "value": "−10", "unit": "%"},
      {"measurement": "effect on right ventricular hypertrophy (RV/LV+S, Fulton's Index) compared to vehicle", "setting": "[1]; cinitapride 0.9 mg/kg/day", "value": "−25", "unit": "%"},
      {"measurement": "efficacy at reducing monocrotaline-induced pulmonary hypertension (overall mortality, pulmonary hemodynamics, right ventricular hypertrophy) versus sildenafil", "setting": "[1]; cinitapride 0.9 mg/kg/day given BID, oral", "value": "superior to the positive control"},
      {"measurement": "decrease in hypertrophy, RV (wt) corrected by body weight", "setting": "[1]; cinitapride highest dose, p<0.05", "value": 33, "unit": "%"},
      {"measurement": "activity in controlling or reducing PAH relative to Sildenafil", "setting": "[1]; rat, in vivo", "value": "comparable"},
      {"measurement": "heart rate or mean arterial pressure compared to vehicle", "setting": "[1]; rats treated with cinitapride", "value": "No substantive differences"}
    ]}
  ]
}
